According to ChEMBL document CHEMBL5352441, “Modulation of FLT3-ITD and CDK9 in acute myeloid leukaemia cells by novel proteolysis targeting chimera (PROTAC)” (2022):
The source made the active and inactive calls. The rule behind the calls is not given here.

Experiments:
U-937 = test: Antiproliferative activity against human U-937 cells assessed as cell growth inhibition incubated for 72 hrs by resazurin dye based fluorescence analysis; format: functional
[1] = molecular target: Receptor-type tyrosine-protein kinase FLT3 (Homo sapiens) (UniProt P36888); test: Inhibition of human FLT3 assessed as residual activity at 100 nM relative to control
[2] = system: Receptor-type tyrosine-protein kinase FLT3 (Homo sapiens), P36888 [UNDEFINED MUTATION]; test: Inhibition of FLT3 in human MV4-11 cells harboring FLT3-ITD mutation assessed as reduction in STAT5 phosphorylation at Y694 residue at 0.004 to 2.5 uM incubated for 16 hrs by immunoblot analysis; format: cell-based; details: dose 0.004-2.5 µM
[3] = molecular target: T1, Protein cereblon/Receptor-type tyrosine-protein kinase FLT3 (Homo sapiens) (UniProt P36888+Q96SW2); test: PROTAC activity at CRBN/FLT3 in human MV4-11 cells harboring FLT3-ITD mutation assessed as induction of protein degradation at […] incubated for 16 hrs by immunoblot analysis; format: cell-based
MV4-11 [4] = test: Induction of cell cycle arrest in human MV4-11 cells assessed as accumulation of cells at G1 phase at 0.004 uM incubated for 16 hrs by PI staining based flow cytometry analysis (reference value: 62.97%); format: functional
MV4-11 [5] = test: Induction of cell cycle arrest in human MV4-11 cells assessed as accumulation of cells at S phase at 0.004 uM incubated for 16 hrs by PI staining based flow cytometry analysis (reference value: 26.16%); format: functional
MV4-11 [6] = test: Induction of cell cycle arrest in human MV4-11 cells assessed as accumulation of cells at G2/M phase at 0.004 uM incubated for 16 hrs by PI staining based flow cytometry analysis (reference value: 10.86%); format: functional
MV4-11 [7] = test: Induction of cell cycle arrest in human MV4-11 cells assessed as accumulation of cells at subG1 phase at 0.02 uM incubated for 16 hrs by PI staining based flow cytometry analysis (reference value: 10.51%); format: functional
MV4-11 [8] = test: Induction of cell cycle arrest in human MV4-11 cells assessed as accumulation of cells at G1 phase at 0.1 uM incubated for 16 hrs by PI staining based flow cytometry analysis (reference value: 62.97%); format: functional
MV4-11 [9] = test: Induction of cell cycle arrest in human MV4-11 cells assessed as accumulation of cells at S phase at 0.5 uM incubated for 16 hrs by PI staining based flow cytometry analysis (reference value: 26.16%); format: functional
MV4-11 [10] = test: Induction of cell cycle arrest in human MV4-11 cells assessed as accumulation of cells at G1 phase at 2.5 uM incubated for 16 hrs by PI staining based flow cytometry analysis (reference value: 62.97%); format: functional
MV4-11 [11] = test: Induction of cell cycle arrest in human MV4-11 cells assessed as accumulation of cells at G2/M phase at 2.5 uM incubated for 16 hrs by PI staining based flow cytometry analysis (reference value: 10.86%); format: functional
MV4-11 [12] = test: Induction of cell cycle arrest in human MV4-11 cells assessed as accumulation of cells at subG1 phase at 2.5 uM incubated for 16 hrs by PI staining based flow cytometry analysis (reference value: 10.51%); format: functional
MV4-11 [13] = test: Induction of cell cycle arrest in CRBN-deficient human MV4-11 cells assessed as accumulation of cells at G1 phase at 0.004 uM incubated for 16 hrs by PI staining based flow cytometry analysis (reference value: 54.05%); format: functional
MV4-11 [14] = test: Induction of cell cycle arrest in CRBN-deficient human MV4-11 cells assessed as accumulation of cells at G2/M phase at 0.004 uM incubated for 16 hrs by PI staining based flow cytometry analysis (reference value: 9.34%); format: functional
MV4-11 [15] = test: Induction of cell cycle arrest in CRBN-deficient human MV4-11 cells assessed as accumulation of cells at sub-G1 phase at 0.02 uM incubated for 16 hrs by PI staining based flow cytometry analysis (reference value: 12.52%); format: functional
MV4-11 [16] = test: Induction of cell cycle arrest in CRBN-deficient human MV4-11 cells assessed as accumulation of cells at G1 phase at 0.1 uM incubated for 16 hrs by PI staining based flow cytometry analysis (reference value: 54.05%); format: functional
MV4-11 [17] = test: Induction of cell cycle arrest in CRBN-deficient human MV4-11 cells assessed as accumulation of cells at G2/M phase at 0.1 uM incubated for 16 hrs by PI staining based flow cytometry analysis (reference value: 9.34%); format: functional
MV4-11 [18] = test: Downregulation of MCL-1 gene expression in human MV4-11 cells incubated for 4 hrs by qRT-PCR analysis; format: functional, cell-based; details: dose 0.004-2.5 µM
MV4-11 [19] = test: Downregulation of Myc gene expression in human MV4-11 cells incubated for 4 hrs by qRT-PCR analysis; format: functional, cell-based; details: dose 0.004-2.5 µM
MV4-11 [20] = test: Downregulation of FLT3 gene expression in human MV4-11 cells at 0.004 to 2.5 uM incubated for 4 hrs by qRT-PCR analysis; format: functional, cell-based; details: dose 0.004-2.5 µM
MV4-11 [21] = test: Induction of apoptosis in human MV4-11 cells assessed as activation of caspase 3 at 0.1 to 0.5 uM preincubated for 90 mins with 4-hydroxythalidomide followed by compound addition and further incubated for 16 hrs in presence of Ac-DEVD-AMC by fluorescence microplate reader analysis; format: functional, cell-based; details: dose 0.1-0.5 µM
[22] = molecular target: T1, Protein cereblon/Receptor-type tyrosine-protein kinase FLT3 (Homo sapiens); test: PROTAC activity at CRBN/FLT3 in human MV4-11 cells at 0.1 to 0.5 uM preincubated for 90 mins with MG132 followed by compound addition and further incubated for 16 hrs by immunoblot analysis; format: cell-based; details: dose 0.1-0.5 µM

T1 sequence (P36888 27-993 limits assumed): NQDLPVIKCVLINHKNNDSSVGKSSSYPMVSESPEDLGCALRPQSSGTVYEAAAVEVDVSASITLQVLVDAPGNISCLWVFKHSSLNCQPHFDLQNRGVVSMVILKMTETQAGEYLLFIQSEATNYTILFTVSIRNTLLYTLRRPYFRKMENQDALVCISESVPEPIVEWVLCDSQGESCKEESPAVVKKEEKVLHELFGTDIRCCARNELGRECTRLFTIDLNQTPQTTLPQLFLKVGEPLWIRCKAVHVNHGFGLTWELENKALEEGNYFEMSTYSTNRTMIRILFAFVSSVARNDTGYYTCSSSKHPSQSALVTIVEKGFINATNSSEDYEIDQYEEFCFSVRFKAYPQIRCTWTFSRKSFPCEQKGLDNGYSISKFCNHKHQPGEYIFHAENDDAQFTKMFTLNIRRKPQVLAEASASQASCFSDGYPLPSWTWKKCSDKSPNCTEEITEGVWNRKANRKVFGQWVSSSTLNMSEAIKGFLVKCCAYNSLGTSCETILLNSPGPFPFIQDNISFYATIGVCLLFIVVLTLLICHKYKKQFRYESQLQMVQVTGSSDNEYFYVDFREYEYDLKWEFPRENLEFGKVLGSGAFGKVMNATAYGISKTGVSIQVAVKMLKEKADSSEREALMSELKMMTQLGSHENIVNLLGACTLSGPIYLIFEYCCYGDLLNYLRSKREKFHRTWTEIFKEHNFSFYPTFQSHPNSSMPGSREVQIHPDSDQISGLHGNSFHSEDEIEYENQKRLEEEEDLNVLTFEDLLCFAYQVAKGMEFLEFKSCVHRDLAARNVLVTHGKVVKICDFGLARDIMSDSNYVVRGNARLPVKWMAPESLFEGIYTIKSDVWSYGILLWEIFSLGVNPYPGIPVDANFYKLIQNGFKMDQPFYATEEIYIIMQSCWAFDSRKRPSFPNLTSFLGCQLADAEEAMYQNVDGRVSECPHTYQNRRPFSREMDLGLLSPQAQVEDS
T1 sequence (Q96SW2 whole entry partner): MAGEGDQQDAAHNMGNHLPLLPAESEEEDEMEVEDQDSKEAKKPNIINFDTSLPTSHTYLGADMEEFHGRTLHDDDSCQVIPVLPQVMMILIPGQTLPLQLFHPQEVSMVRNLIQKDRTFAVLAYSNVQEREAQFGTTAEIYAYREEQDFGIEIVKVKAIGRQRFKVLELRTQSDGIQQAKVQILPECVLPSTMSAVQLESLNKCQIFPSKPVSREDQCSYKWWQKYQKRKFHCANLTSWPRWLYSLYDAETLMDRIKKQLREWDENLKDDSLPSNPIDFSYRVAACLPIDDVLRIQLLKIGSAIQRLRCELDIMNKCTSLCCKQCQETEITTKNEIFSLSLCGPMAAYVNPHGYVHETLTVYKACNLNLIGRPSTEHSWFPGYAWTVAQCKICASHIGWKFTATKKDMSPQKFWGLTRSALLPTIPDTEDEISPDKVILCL
Receptor-type tyrosine-protein kinase FLT3 (Homo sapiens), P36888 [UNDEFINED MUTATION], sequence (P36888 whole entry, looked up, change not shown): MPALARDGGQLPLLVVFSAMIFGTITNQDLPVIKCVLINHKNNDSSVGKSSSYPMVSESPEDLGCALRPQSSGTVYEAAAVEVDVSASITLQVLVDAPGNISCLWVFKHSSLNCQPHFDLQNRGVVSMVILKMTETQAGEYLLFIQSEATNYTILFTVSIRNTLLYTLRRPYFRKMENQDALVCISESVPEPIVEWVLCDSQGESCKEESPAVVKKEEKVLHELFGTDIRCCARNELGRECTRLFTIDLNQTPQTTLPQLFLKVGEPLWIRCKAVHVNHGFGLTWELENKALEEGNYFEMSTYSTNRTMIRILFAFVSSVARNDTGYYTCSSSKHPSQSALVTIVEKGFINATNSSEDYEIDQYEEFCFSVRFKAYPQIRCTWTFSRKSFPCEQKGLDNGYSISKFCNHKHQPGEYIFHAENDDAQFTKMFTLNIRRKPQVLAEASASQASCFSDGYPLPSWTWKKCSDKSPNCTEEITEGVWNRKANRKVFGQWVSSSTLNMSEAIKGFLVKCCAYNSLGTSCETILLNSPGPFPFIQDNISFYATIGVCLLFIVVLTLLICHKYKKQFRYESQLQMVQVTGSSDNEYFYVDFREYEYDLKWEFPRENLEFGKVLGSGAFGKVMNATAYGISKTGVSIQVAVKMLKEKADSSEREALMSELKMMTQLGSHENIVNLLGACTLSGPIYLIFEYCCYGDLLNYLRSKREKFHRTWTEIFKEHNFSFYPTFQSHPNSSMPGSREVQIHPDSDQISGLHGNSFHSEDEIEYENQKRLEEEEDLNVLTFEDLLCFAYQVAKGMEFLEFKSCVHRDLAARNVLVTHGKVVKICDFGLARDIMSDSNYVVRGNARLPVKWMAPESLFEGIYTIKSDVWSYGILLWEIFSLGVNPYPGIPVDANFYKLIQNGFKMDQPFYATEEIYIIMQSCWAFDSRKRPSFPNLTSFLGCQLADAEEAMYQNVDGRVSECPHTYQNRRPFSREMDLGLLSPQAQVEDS
Receptor-type tyrosine-protein kinase FLT3 (Homo sapiens), sequence (P36888 whole entry): as the sequence (P36888 whole entry, looked up, change not shown) above

For NC1CCC(Nc2nc(Nc3ccc(N4CCN(CCOCCOCCNC(=O)CNc5cccc6c5C(=O)N(C5CCC(=O)NC5=O)C6=O)CC4)cc3)c3ncn(C4CCCC4)c3n2)CC1 (stereo not drawn), the GI50 (U-937) was 9.51 µM, the Activity [1] was 2% and the inhibition [2] was “Active”. For the same molecule, the Activity [3] was “Active”, the Activity (MV4-11 [4]) was 69.48% and the Activity (MV4-11 [5]) was 21.5%. The Activity (MV4-11 [6]) was 9.03%, the Activity (MV4-11 [7]) was 12.82% and the Activity (MV4-11 [8]) was 89.61%. The Activity (MV4-11 [9]) was 18.55%, the Activity (MV4-11 [10]) was 57.33% and the Activity (MV4-11 [11]) was 7.79%. The Activity (MV4-11 [12]) was 79.82%, the Activity (MV4-11 [13]) was 63.08% and the Activity (MV4-11 [14]) was 8.04%. The Activity (MV4-11 [15]) was 13.43%, the Activity (MV4-11 [16]) was 90.54% and the Activity (MV4-11 [17]) was 3.38%. The Activity (MV4-11 [18]) was “Dose-Dependent Effect”, the Activity (MV4-11 [19]) was “Dose-Dependent Effect” and the Activity (MV4-11 [20]) was “inactive”. For the same molecule, the Activity (MV4-11 [21]) was “inactive” and the Activity [22] was “inactive”.
